Series [1] concerns adriamycin‐resistant UM‐UC‐14 cell line. Description: In vitro cell growth assay, adriamycin-resistant UM-UC-14.
In another series the test system is UM‐UC‐14 [FGFR3_S249C]. Nature of the series: In vitro cell growth assay. Format: cell-based. To be noted: Homo sapiens, UMUC14, 120 h, read-out: IC50, anti-proliferative effect.
Series [2] deals with urothelial cancer harboring FGFR3 gene alternation. As to conditions: 25 evaluable urothelial cancer patients with FGFR3 gene alternation; cited from earlier work.
For series [3] the following is noted: cited from earlier work; for T 1/2: clinical information; for hyperphosphatemia: clinical.
The subject of a further series is RT‐112 [FGFR3‐TACC3]. Nature of the series: In vitro cell growth assay. The class given is cell-based. As to conditions: Homo sapiens, RT-112, 120 h, read-out: IC50, proliferation.
Series [4] concerns tumors harboring FGFR3‐TACC3 fusion genes. As to conditions: patients with tumors harboring FGFR3-TACC3 fusion genes; cited from earlier work.
Series [5] relates to c‐MYC expression in lung cancer cell lines harboring FGFR1 overexpression. As to conditions: cited from earlier work.

Values after ≈ are worked out from the molar mass of the structure shown.

Data on five compounds can be found in paper PMC5329164 (Cancer Science, 2017).

As for `COc1cccc2c1C(=O)c1c(O)c3c(c(O)c1C2=O)C[C@@](O)(C(=O)CO)C[C@@H]3O[C@H]1C[C@H](N)[C@H](O)[C@H](C)O1` [Adriamycin], the IC50 in series [1] (Homo sapiens, UMUC14, 120 h, read-out: IC50, anti-proliferative effect) is 58 ng/mL (≈ 0.107 µM); in the series on UM‐UC‐14 [FGFR3_S249C] it was 6.7 ng/mL (≈ 0.0123 µM). Moreover, the “fold weaker anti-proliferative effect in resistant vs parental cell line” value in series [1] (adriamycin-resistant UM-UC-14 vs parental UM-UC-14) is recorded as 8.7 folds.
For `CCN1CCN(c2ccc(Nc3cc(N(C)C(=O)Nc4c(Cl)c(OC)cc(OC)c4Cl)ncn3)cc2)CC1` [BGJ398, 3‐(2,6‐dichloro‐3,5‐dimethoxy‐phenyl)‐1‐{6‐[4‐(4‐ethyl‐piperazin‐1‐yl)‐phenylamino]‐pyrimidin‐4‐yl}‐1‐methyl‐urea], in series [2], the overall response rate is listed as 36%. In series [3], the “T 1/2” value is “quite large” and the hyperphosphatemia entry was “commonly observed”.
With `Nc1ccn([C@@H]2O[C@H](CO)[C@@H](O)C2(F)F)c(=O)n1` [Gemcitabine], the IC50 with RT‐112 [FGFR3‐TACC3] is 0.95 ng/mL (≈ 0.00361 µM).
`COc1cc(OC)cc(N(CCNC(C)C)c2ccc3ncc(-c4cnn(C)c4)nc3c2)c1` [JNJ‐42756493]: in series [3], the “T 1/2” value is on record as “quite large” and the hyperphosphatemia entry is reported as “commonly observed”. The partial responses result in series [4] is reported as “three out of four partial responses”.
As for `CCN(CC)CCCCNc1ncc2cc(-c3cc(OC)cc(OC)c3)c(NC(=O)NC(C)(C)C)nc2n1` [PD173074, 1‐tert‐butyl‐3‐[6‐(3,5‐dimethoxy‐phenyl)‐2‐(4‐diethylamino‐butylamino)‐pyrido[2,3‐d]pyrimidin‐7‐yl]‐urea], in series [5], the c-MYC expression entry is “decreased”.
